According to paper PMC11836371, “Virtual fragment screening for DNA repair inhibitors in vast chemical space” (Nature Communications, 2025):
“And” between values parts separate entries of the source, which are not always exact repeats. Equal values may be shown once. Read-outs that look alike come from different tables or passages of the source.

Assays:
A549 cells = assay: Cancer cell viability assay (resazurin), A549; format: cell-based; conditions: two independent experiments; for percentage cell viability: A549, 100 μM, 100 µM; for viability at 100 µM: Homo sapiens, A549, A549, 100 μM, read-out: percentage cell viability
Description: (§1) Three different cancer cell lines A2780 (ovarian cancer, ECACC 93112519), A549 (lung cancer, ATCC 60150896) and HCT116 (colon cancer, ATCC CCL-247), and one immortalized fibroblast cell line (BJhTERT) as control, were seeded in black/clear 384-well plates (Corning #3764), 50 µL/well, containing 11 concentrations, nano-dispensed, dose-response curves of the test compounds. A2780, HCT116, and HEK293T cell lines were authenticated with STR profiling, frozen down, and these stocks were used in experiments. The A2780 cells were cultured in RPMI 1640, the A549 and BJhTERT cells in DMEM, and the HCT116 cells in McCoys 5 A medium. All media were supplemented with 10% FBS and 1% P/S. All cell culture media, additives, and reagents were purchased from Thermo Fisher Scientific. The cell plates were incubated 72 hours in a humidified incubator at 37 °C with 5% CO2, after which resazurin (Sigma-Aldrich), 10 µL/well, was added to a final concentration of 10 µg/mL. The plates were incubated for 6 hours with resazurin followed by fluorescence readings in a Sense plate reader (Hidex), resorufin protocol (ex 544 nm/em 595 nm). The cell viability was calculated compared to untreated control wells and the EC50 values were determined in XLfit (IDBS).

A2780 cells = assay: Cancer cell viability assay (resazurin), A2780; format: cell-based; conditions: two independent experiments; for percentage cell viability: A2780, 100 μM, 100 µM; for viability at 100 µM: Homo sapiens, A2780, A2780, 100 μM, read-out: percentage cell viability
Description: as §1

HCT116 cells = assay: Cancer cell viability assay (resazurin), HCT116; format: cell-based; conditions: two independent experiments; for percentage cell viability: HCT116, 100 μM, 100 µM; for viability at 100 µM: Homo sapiens, HCT-116, HCT116, 100 μM, read-out: percentage cell viability
Description: as §1

[1] = Cell viability assay (resazurin), BJhTERT non-transformed control; format: cell-based; conditions: human, BJhTERT, 100 μM, two independent experiments; read-out: percentage cell viability
Description: (§2) A2780, HCT116, and HEK293T cell lines were authenticated with STR profiling, frozen down, and these stocks were used in experiments. […] All media were supplemented with 10% FBS and 1% P/S. All cell culture media, additives, and reagents were purchased from Thermo Fisher Scientific. The cell plates were incubated 72 hours in a humidified incubator at 37 °C with 5% CO2, after which resazurin (Sigma-Aldrich), 10 µL/well, was added to a final concentration of 10 µg/mL. […] The cell viability was calculated compared to untreated control wells and the EC50 values were determined in XLfit (IDBS).

BJhTERT cells = assay: as above; format: cell-based; conditions: BJhTERT, 100 μM, two independent experiments
Description: as §2

[2] = system: NF-κB activation in HEK293T pGF NF-κB cells; assay: TNF-α induced NF-κB activation assay; format: cell-based; conditions: Homo sapiens, HEK-293T; NFκB activation assay; ± SD; read-out: pEC50 (converted)
Description: The inhibition of TNF-α induced NF-κB activation was measured in HEK293T cells transfected with the pGreenfire NF-κB plasmid. This is a plasmid that has NF-κB response elements (TRE) coupled to GFP and luciferase expression. When the NF-κB is activated by TNF-α, it binds to the TRE and induces GFP expression, and the fluorescence can be measured in a plate reader. The cells were authenticated with STR profiling, frozen down and these stocks were used in experiments. The HEK293T pGF NF-κB cells were kept in DMEM with 5% FBS and 1% P/S but, when seeded for the assay the medium was changed to DMEM FluoroBrite with 1% dialyzed FBS. All cell culture reagents were purchased from Thermo Fisher Scientific. Compounds were nano-dispensed (Echo acoustic dispenser) in 96-well, black/clear, assay plates (Corning #3904), duplicate plates, in 8-points dose-response curves, 1:2 dilutions, with DMSO compensation (0.3% DMSO). Cells were seeded at 30000 cells/well in medium containing 10 ng/mL of TNF-α (Sigma-Aldrich), except negative control wells which only contained cells in medium. Cells were cultured for 24 hours in a humidified incubator at 37 °C with 5% CO2 after which the GFP fluorescence was measured in a Sense plate reader (Hidex) with ex485/em535. The RFU data from the duplicate plates were combined to calculate % inhibition of NF-κB activation and IC50-values were calculated using XLfit (IDBS). In parallel with the NF-κB assay, a CellTiterGlo (Promega) cell viability assay was run to exclude compounds affecting cell viability. Compounds were nano-dispensed (Echo acoustic dispenser) in assay plates in 11-points dose-response curves, 1:3 dilutions, without DMSO compensation, with duplicates on the same plate. Cells were seeded at 7500 cells/well in 25 µL medium (DMEM FluoroBrite with 1% dialyzed FBS) containing 10 ng/mL TNF-α and cultured for 24 hours, with column 24 containing only culture medium. After equilibration to room temperature, the CellTiterGlo reagents were mixed and 25 µL/well were added to the cell plate. After 2 min mixing of the plate on an orbital shaker, the plate was incubated for 10 min at room temperature followed by luminescence reading in Sense. The cell viability was calculated compared to untreated control wells and the EC50 values were determined in XLfit (IDBS). […]

human OGG1 enzyme [3] = molecular target: T1, human OGG1 enzyme (Homo sapiens, UniProt O15527); assay: OGG1 glycosylase activity assay (enzyme inhibition, APE1-coupled fluorescence); format: biochemical
T1 sequence (O15527 whole entry): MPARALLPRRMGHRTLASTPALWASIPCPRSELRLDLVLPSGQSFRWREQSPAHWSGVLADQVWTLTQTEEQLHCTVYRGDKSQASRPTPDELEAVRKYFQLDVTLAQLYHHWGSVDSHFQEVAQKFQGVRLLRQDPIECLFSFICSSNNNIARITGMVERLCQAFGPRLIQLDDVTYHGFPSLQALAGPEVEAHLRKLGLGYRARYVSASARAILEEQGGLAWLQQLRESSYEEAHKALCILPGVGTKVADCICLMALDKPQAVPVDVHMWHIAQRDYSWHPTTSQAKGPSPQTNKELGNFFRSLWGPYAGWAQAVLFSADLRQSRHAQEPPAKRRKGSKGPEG
Description: “8” signifies 8-oxoA and “FAM” and “Dab” signify fluorescein and dabcyl (TriLink Biotech). Briefly, compounds dissolved in DMSO were dispensed using an Echo 550 (Labcyte), followed by transfer of enzyme and substrate solutions manually with a 16-channel pipette or with a Multidrop (Thermo Scientific). The plates were centrifuged, sealed and incubated at room temperature overnight (15 h) and read the following morning in an Hidex Sense plate reader (Hidex Oy) using a 485-nm filter with a bandwidth of 10 nm for excitation and a 535-nm filter with a bandwidth of 20 nm for emission.

human OGG1 enzyme [4] = molecular target: T1, human OGG1 enzyme; assay: Differential scanning fluorimetry (DSF) thermal shift assay; format: binding; parameters: ∆Tm (K): unit of the concentration uncertain
Description: The temperature was increased from 20 °C to 85 °C with 10 readings/degree. Tm values were calculated using an excel template and fitting to the Boltzmann equation in Prism v.6.07 (GraphPad Software).

MTH1 = MTH1 (Homo sapiens, UniProt P36639); assay: biochemical
Description: Inhibition of the following enzymes was assessed in the selectivity assays: apurinic/apyrimidinic endonuclease (APE1), endonuclease 8-like 1 (NEIL1), oxidized purine nucleoside triphosphate hydrolase (MTH1) and single-strand selective monofunctional uracil DNA glycosylase (SMUG1). BER enzymes were assayed with a similar strategy as OGG1, using identical DNA sequences surrounding the substrate lesion and the same reaction buffer containing 2 nM APE1. To assess SMUG1 inhibition, a 375 nM substrate containing uracil opposite guanine and 0.3 U SMUG1 enzyme (M0336 from New England Biolabs) was used. To assess NEIL1 inhibition, a 20 nM substrate containing thymidine glycol opposite adenine and 10 nM NEIL1 was used. To assess APE1 inhibition, an UNG2 substrate was pre-treated with E. coli Uracil-DNA glycosylase (New England Biolabs M0280) to generate an AP-site opposite adenine, which was used at 10 nM concentration in the presence of 0.1 nM APE1. All BER inhibition assays were in the linear range and less than 40% of the total substrate had been consumed at readout. The experiments were performed in three independent replicates and the percentage inhibition was calculated relative to the signal of a DMSO-treated control. To assess MTH1 inhibition, MTH1-catalyzed dGTP hydrolysis was coupled to inorganic pyrophosphatase (PPase), thereby releasing inorganic phosphate. The produced free phosphate was then detected using the malachite green assay[76]. […] Substrate concentration at the Km value for the respective substrate was chosen if possible. Inhibition using 100 μM compound was tested in reaction buffer (100 mM Tris-Acetate pH 8.0, 10 mM magnesium acetate, 40 mM NaCl, 1 mM DTT, and 0.005% Tween-20). Samples were incubated with shaking at 22 °C for 15 minutes. The reaction was then stopped by the addition of the malachite green reagent[76]. Absorbance was read at 630 nm using a Hidex Sense plate reader after a period of incubation with the methylene green reagent of 15 minutes. The experiment was performed in three independent replicates and percentage inhibition was calculated relative to the signal of a DMSO-treated control.

[5] = Figure 3B source data, three independent experiments, read-out: IC50 OGG1
[6] = Table S5, ± SD, read-out: pIC50 (converted)

Row | SMILES | IC50 (human OGG1 enzyme [3]; Table 1, mean ± SD, at least three independent replicates, read-out: pIC50 (converted)) | ∆Tm (K) (human OGG1 enzyme [4]; 99 μM) | ∆Tm (K) (human OGG1 enzyme [4]; 99 (unit uncertain) as printed in sheet footnote) | IC50 (human OGG1 enzyme [3]; [5]) | IC50 (human OGG1 enzyme [3]; [6]) | IC50 (MTH1) | percentage cell viability (A549 cells) | viability at 100 µM (A549 cells) | percentage cell viability (A2780 cells) | viability at 100 µM (A2780 cells) | percentage cell viability (HCT116 cells) | viability at 100 µM (HCT116 cells) | viability at 72 h, 100 µM [1] | percentage cell viability (BJhTERT cells) | EC50 [2]
1 | Cc1cc(C)n(-c2cc(F)c(CC(=O)Nc3noc4c3CCCC4)c(F)c2)n1 [compound 8] | 6.46 µM | 5.4 ± 0.5 K | 5.4 ± 0.5 K |  |  |  | 33.07% | 32.8% | 19.16% | 17.4% | 43.25% | 35.4% | 40.1% | 42.84% | 11.2 µM
2 | Cc1cc(C2CC2)n(-c2ccc(CC(=O)Nc3noc4c3CCCC4)cc2)n1 [compound 9] |  | 6.6 ± 0.6 K |  | 6.28 µM and 6.2 µM and 6.46 µM | 3.72 µM |  | 68.3% | 68.1% | 25.03% | 21.5% | 86.44% | 81.6% | 73% | 80.1% | 9.12 µM
3 | Cc1nn(-c2ccc(CC(=O)Nc3noc4c3CCCC4)cc2)c2ccccc12 [compound 10] |  | 4.8 ± 0.4 K |  |  | 1.29 µM |  | 6.63% | 5.97% | 1.45% | 0.84% | 2.45% | 2% | 8.08% | 8.77% | 6.61 µM
4 | O=C(Cc1ccc(-n2nc(Cl)c3ccccc32)cc1)Nc1noc2c1CCCC2 [compound 12] |  | 2.3 K |  |  | 10.5 µM |  | 10.09% | 12.3% | 0.88% | 1.08% | 2.49% | 3.25% | 30.1% | 28.88% | 5.5 µM
5 | Cc1nn(-c2ccc(CC(=O)Nc3noc4c3CCCC4)cc2)c2ccc(N)cc12 [compound 14] |  |  |  |  | 9.77 µM |  | 28.85% | 28.3% | 5.95% | 3.81% | 30.89% | 26% | 38.5% | 41.42% | 6.61 µM
6 | Cc1[nH]c(Br)nc1-c1ccc(CC(=O)Nc2noc3c2CCCC3)cc1 [compound 21] |  | 5.9 K |  |  | 2.09 µM |  | 31.92% | 23.9% | 6.18% | 4.62% | 47.52% | 38.9% | 63.3% | 76% | 11.5 µM

The next lines start with results.

Row | IC50 (human OGG1 enzyme [3]; Table 1, mean ± SD, at least three independent replicates, read-out: pIC50 (converted)) | ∆Tm (K) (human OGG1 enzyme [4]; 99 μM) | ∆Tm (K) (human OGG1 enzyme [4]; 99 (unit uncertain) as printed in sheet footnote) | IC50 (human OGG1 enzyme [3]; [5]) | IC50 (human OGG1 enzyme [3]; [6]) | IC50 (MTH1) | SMILES | percentage cell viability (A549 cells) | viability at 100 µM (A549 cells) | percentage cell viability (A2780 cells) | viability at 100 µM (A2780 cells) | percentage cell viability (HCT116 cells) | viability at 100 µM (HCT116 cells) | viability at 72 h, 100 µM [1] | percentage cell viability (BJhTERT cells) | EC50 [2]
7 |  | 7.8 K |  | 0.589 µM and 0.638 µM and 0.615 µM | 0.832 µM | 18.4 µM and 20 µM and 18.5 µM | Cc1nc(-c2ccc(CC(=O)Nc3noc4c3CCCC4)cc2F)c(C)[nH]1 [compound 18] | 56.99% | 53.3% | 4.22% | 3.84% | 53.92% | 45.2% | 38.1% | 41.01% | 11.7 µM
8 |  | 8.6 ± 0.5 K |  |  | 0.741 µM |  | Cc1nc(-c2ccc(CC(=O)Nc3noc4c3CCCC4)c(F)c2)c(C)[nH]1 [compound 20] | 35.78% | 35% | 2.93% | 2.84% | 15.72% | 13% | 23.9% | 24.23% | 20.4 µM
9 |  | 6.3 K |  |  | 1.95 µM |  | Cc1nc(-c2ccc(CC(=O)Nc3noc4c3CCCC4)nc2)c(C)[nH]1 [compound 22] | 96.69% | 79.4% | 65.16% | 50.2% | 64.01% and 103.96% |  |  | 76.15% and 96.63% | 28.2 µM
